Results reported in US12172990B2 (Constellation Pharmaceuticals, Inc., priority 2018, dated 2024).

Tests used:
[1] = target: full length human TREX1 (Homo sapiens (Human), UniProt Q9NSU2); assay: TREX1 Biochemical Assay (fluorescence assay measuring degradation of dsDNA substrate); settings: 150 pM TREX1, 60 nM dsDNA substrate, 25 minutes at room temperature
Procedure, shortened: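 His-Tev-tagged full-length human TREX1 expressed in E. coli, 150 pM final, with 60 nM TEX615/quencher-labelled 9-mer dsDNA in Tris pH 7.4, NaCl, DTT, BSA, Tween-20, MgCl2 and 1.0% DMSO; 25 min at room temperature, EDTA-quenched. Fluorescence 615 nm (excitation 570 nm); 10-point IC50 by four-parameter fit against pre-quenched and no-inhibitor controls.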

[2] = target: human TREX2 (residues M44-A279) (Homo sapiens (Human), UniProt Q9BQ50); assay: TREX2 Biochemical Assay (fluorescence assay measuring degradation of dsDNA substrate); settings: 2.5 nM TREX2, 60 nM dsDNA substrate, 25 minutes at room temperature
Procedure, shortened: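 Final conditions: 2.5 nM His-Tev-tagged TREX2 (E. coli-expressed), 60 nM fluorophore/quencher-labelled dsDNA, 50 mM Tris pH 7.4, 150 mM NaCl, 100 mM MgCl2, 1% DMSO; 10-point compound dose-response. Incubated 25 min at room temperature, then EDTA-quenched; fluorescence read at ex 570/em 615 nm. IC50 from four-parameter fit against pre-quenched and no-inhibitor controls.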

Sequence of human TREX2 (residues M44-A279) (Q9BQ50 whole entry, the tested form may be a part): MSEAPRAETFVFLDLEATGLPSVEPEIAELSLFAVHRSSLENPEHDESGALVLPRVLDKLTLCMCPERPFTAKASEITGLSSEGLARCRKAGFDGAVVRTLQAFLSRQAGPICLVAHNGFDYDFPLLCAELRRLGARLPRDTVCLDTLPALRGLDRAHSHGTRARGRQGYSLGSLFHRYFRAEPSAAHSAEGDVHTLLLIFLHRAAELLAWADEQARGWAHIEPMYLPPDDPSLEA
Sequence of full length human TREX1 (Q9NSU2 whole entry): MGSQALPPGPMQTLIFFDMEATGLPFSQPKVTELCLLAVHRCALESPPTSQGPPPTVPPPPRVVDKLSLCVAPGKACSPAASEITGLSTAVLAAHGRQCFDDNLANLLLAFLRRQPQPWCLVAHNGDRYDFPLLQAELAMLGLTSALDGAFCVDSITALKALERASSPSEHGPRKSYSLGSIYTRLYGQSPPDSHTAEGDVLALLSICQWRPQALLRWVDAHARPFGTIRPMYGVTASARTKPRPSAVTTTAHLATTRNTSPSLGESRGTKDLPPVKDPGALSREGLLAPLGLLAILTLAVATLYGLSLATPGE

| SMILES | IC50 [1] [nM] | IC50 [2] [nM] |
| --- | --- | --- |
| Cn1c(C2CCCN(CCc3ccccc3)C2)nc(C(=O)Nc2cnoc2)c(O)c1=O (stereo not shown) [Example 129, 5-hydroxy-N-(isoxazol-4-yl)-1-methyl-6-oxo-2-(1-phenethylpiperidin-3-yl)-1,6-dihydropyrimidine-4-carboxamide] | > 10000 | > 100000 |
| Cn1c(C2(C)CCCN(C(=O)c3ccc(Cl)c(Cl)c3)C2)nc(C(=O)Nc2cnoc2)c(O)c1=O (stereo not shown) [Example 130, 2-(1-(3,4-dichlorobenzoyl)-3-methylpiperidin-3-yl)-5-hydroxy-N-(isoxazol-4-yl)-1-methyl-6-oxo-1,6-dihydropyrimidine-4-carboxamide] | 100 to 1000 | 1000 to 10000 |
| Cn1c([C@@H]2CCCN(C(=O)c3ccc(Cl)c(Cl)c3)C2)nc(C(=O)Nc2cnoc2)c(O)c1=O [Example 131, (R)-2-(1-(3,4-dichlorobenzoyl)piperidin-3-yl)-5-hydroxy-N-(isoxazol-4-yl)-1-methyl-6-oxo-1,6-dihydropyrimidine-4-carboxamide] | < 100 | < 1000 |

More lines, now with the values ahead:

| IC50 [1] [nM] | IC50 [2] [nM] | SMILES |
| --- | --- | --- |
| < 100 | < 1000 | Cn1c(N2CCN(c3ccccn3)C[C@@H]2c2ccccc2Cl)nc(C(=O)Nc2cnoc2)c(O)c1=O [Example 125, (S)-2-(2-(2-chlorophenyl)-4-(pyridin-2-yl)piperazin-1-yl)-5-hydroxy-N-(isoxazol-4-yl)-1-methyl-6-oxo-1,6-dihydropyrimidine-4-carboxamide] |
| < 100 | < 1000 | CC(=O)N1CCN(c2nc(C(=O)Nc3cnoc3)c(O)c(=O)n2C)[C@H](c2ccccc2Cl)C1 [Example 128, (R)-2-(4-acetyl-2-(2-chlorophenyl)piperazin-1-yl)-5-hydroxy-N-(isoxazol-4-yl)-1-methyl-6-oxo-1,6-dihydropyrimidine-4-carboxamide] |
